Laboratory results reported in patent US20180215734A1, “PYRIMIDINE DERIVATIVES AS KINASE INHIBITORS AND THEIR THERAPEUTICAL APPLICATIONS” (NantBioScience, Inc., priority 2016, published 2018).

Tests used:
CYP450 2D6 = CYP450 2D6 (Homo sapiens, UniProt P10635); assay: CYP450 inhibition, 2D6; type: in vitro ADME
From the text: (§1) Table 9 discloses toxicity data for compound 19 from various toxicity tests well known to those of ordinary skill.

FGFR3 = biological target: T1, FGFR3 (Homo sapiens, UniProt P22607); assay: BaF3 cells engineered for expression of FGFR3; type: cell-based; conditions: read-out: IC5o(nM) FGFR3
T1 construct: expressed in transfected cells; host or cells: BaF3
From the text: (§2) In FIG. 1 these kinases are from the fibroblast growth factor receptor class of kinases (FGFR1-FGFR4). Compound 19 kinase inhibitory activity FGFR1-FGFR4 are also depicted in Table 5.

TG1a Human AML Xenograft = assay: Antitumor efficacy on TG1a human AML xenograft; type: in vivo, mouse
Description: In this Example the antitumor activity of compounds 14, 17, 19, 45, and 48 of the current invention are tested using an art-recognized xenograft model of AML. (“T/C” refers to the ratio of the tumor's size in treated animals versus the tumor size in control untreated animals. “BWC” refers to “body weight change”).

[1] = Cellular toxicity, HepG2 cell line; type: cell-based; conditions: human, HepG2 cells
From the text: as §1

[2] = Metabolic stability, rat liver microsomes; type: in vitro ADME
Ret(h) = Ret(h) (Homo sapiens, UniProt P07949); assay: Kinase assay, Ret(h); type: biochemical
nude mouse model of AML = assay: Nude mouse model of AML (FIG. 2, FIG. 3); type: in vivo
Tie2(h) = Tie2(h) (Homo sapiens, UniProt Q02763); assay: Kinase assay, Tie2(h); type: biochemical
Kato III = assay: Inhibition of proliferation (CellTiterblue, 72 hr), Kato III; type: cell-based; conditions: Homo sapiens, KATO III, 72 h
Description: A number of studies were performed to analyze the consequences of tyrosine kinase inhibition in cell lines. To do this, 1000 cells are seeded in 27 μl/well in 384-well microplates, which are then placed in a humidified CO2 incubator at 37° C. overnight. The next day, 3 μl/well of 10× concentrated drug is added and the plates are returned to the incubator for 72 hr. After 72 hr incubation, plates are removed and 6 μl/well CellTiterblue (Promega) viability reagent is added. Plates are returned to the incubator for 3 hrs, after which fluorescence measurements are read on the Victor X3 plate reader (Perkin Elmer). Data are analyzed using Excel (Microsoft), and GI50 values are determined using Prism (Graphpad).

Flt3(h) = Flt3(h) (Homo sapiens, UniProt P36888); assay: Kinase assay, Flt3(h); type: biochemical
CYP450 2C8 = CYP450 2C8 (Homo sapiens, UniProt P10632); assay: CYP450 inhibition, 2C8; type: in vitro ADME
From the text: as §1

Aurora-A (h) = Aurora-A (h) (Homo sapiens, UniProt O14965); assay: Kinase assay, Aurora-A (h); type: biochemical
cSRC(h) = cSRC(h) (Homo sapiens, UniProt P12931); assay: Kinase assay, cSRC(h); type: biochemical
CYP450 2C9 = CYP450 2C9 (Homo sapiens, UniProt P11712); assay: CYP450 inhibition, 2C9; type: in vitro ADME
From the text: as §1

CYP450 1A2 = CYP450 1A2 (Homo sapiens, UniProt P05177); assay: CYP450 inhibition, 1A2; type: in vitro ADME
From the text: as §1

[3] = In vivo acute toxicity, MTD; conditions: PO, rat
From the text: as §1

Met(h) = Met(h) (Homo sapiens, UniProt P08581); assay: Kinase assay, Met(h); type: biochemical
FGFR2(N549H)(h) = FGFR2(N549H)(h) (Homo sapiens, UniProt P21802, N549H); assay: Kinase assay, FGFR2(N549H)(h); type: biochemical
[4] = Metabolic stability, mouse liver microsomes; type: in vitro ADME
FGFR2(h) = FGFR2(h) (Homo sapiens, UniProt P21802); assay: Kinase assay, FGFR2(h); type: biochemical
hERG = hERG (Homo sapiens, UniProt Q12809); assay: Cardiovascular toxicity, hERG
From the text: as §1

FGFR4 = biological target: T2, FGFR4 (Homo sapiens, UniProt P22455); assay: BaF3 cells engineered for expression of FGFR4; type: cell-based; conditions: read-out: IC5o(nM) FGFR4
T2 construct: expressed in transfected cells; host or cells: BaF3
From the text: as §2

FGFR1(V561M)(h) = FGFR1(V561M)(h) (Homo sapiens, UniProt P11362, V561M); assay: Kinase assay, FGFR1(V561M)(h); type: biochemical
Description: Kinase assay protocols well known to those of ordinary skill in the art were used. Specifically, the buffer composition was as follows: 20 mM MOPS, 1 mM EDTA, 0.01% Brij-35, 5% Glycerol, 0.1% β-mercaptoethanol, 1 mg/mL BSA. Test compounds were initially dissolved in DMSO at the desired concentration, then serially diluted to the kinase assay buffer. In a final reaction volume of 25 μL FGFR1(h) (5-10 mU) and KDR(h) (5-10 mU) are incubated with 8 mM MOPS pH 7.0, 0.2 mM EDTA, 200 μM LRRASLG (Kemptide), 10 mM magnesium acetate and [γ^33P-ATP]. The reaction was initiated by the addition of the MgATP mix. After incubation for 40 minutes at room temperature, the reaction was stopped by addition of 5 μL of a 3% phosphoric acid solution. Ten L of the reaction was then spotted onto a P30 filter mat and washed three times for 5 minutes in 50 mM phosphoric acid and once in methanol prior to drying and scintillation counting. Wells containing substrate but no kinase and wells containing a phosphopeptide control were used to set 0% and 100% phosphorylation value, respectively.
Of all of the steps in developing a drug, the hardest is finding promising compounds. (See, e.g., Malo et al., “Statistical practice in high-throughput screening data analysis,” Nature Biotechnology, 2006, 24, 167-75.) Kinase inhibitors often also have an anti-proliferative effect. […]

Axl(h) = Axl(h) (Homo sapiens, UniProt P30530); assay: Kinase assay, Axl(h); type: biochemical
Sequence of Axl(h) (P30530 26-894): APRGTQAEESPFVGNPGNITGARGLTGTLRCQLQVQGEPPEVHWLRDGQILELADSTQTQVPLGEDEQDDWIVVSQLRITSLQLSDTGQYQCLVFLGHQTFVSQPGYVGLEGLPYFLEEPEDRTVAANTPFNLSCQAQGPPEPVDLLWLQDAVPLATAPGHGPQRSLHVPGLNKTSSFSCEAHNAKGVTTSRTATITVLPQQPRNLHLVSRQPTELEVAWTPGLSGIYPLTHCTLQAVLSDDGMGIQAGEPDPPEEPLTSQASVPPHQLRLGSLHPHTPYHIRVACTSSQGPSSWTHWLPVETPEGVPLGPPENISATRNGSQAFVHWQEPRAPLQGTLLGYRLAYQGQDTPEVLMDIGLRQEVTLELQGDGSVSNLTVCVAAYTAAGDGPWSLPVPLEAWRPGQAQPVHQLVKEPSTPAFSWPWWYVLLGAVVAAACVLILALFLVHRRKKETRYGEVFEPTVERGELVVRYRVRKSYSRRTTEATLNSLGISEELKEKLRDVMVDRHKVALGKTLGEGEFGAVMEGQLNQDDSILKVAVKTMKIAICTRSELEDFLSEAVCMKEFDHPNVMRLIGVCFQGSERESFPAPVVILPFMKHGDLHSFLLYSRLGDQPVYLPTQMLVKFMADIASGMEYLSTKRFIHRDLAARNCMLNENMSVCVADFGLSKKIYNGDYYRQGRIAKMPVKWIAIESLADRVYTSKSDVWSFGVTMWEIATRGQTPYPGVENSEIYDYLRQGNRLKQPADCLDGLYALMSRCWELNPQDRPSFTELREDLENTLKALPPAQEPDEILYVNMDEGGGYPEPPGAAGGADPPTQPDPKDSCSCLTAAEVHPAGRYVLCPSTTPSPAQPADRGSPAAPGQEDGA

Sequence of FGFR2(N549H)(h) (P21802 22-821 N549H): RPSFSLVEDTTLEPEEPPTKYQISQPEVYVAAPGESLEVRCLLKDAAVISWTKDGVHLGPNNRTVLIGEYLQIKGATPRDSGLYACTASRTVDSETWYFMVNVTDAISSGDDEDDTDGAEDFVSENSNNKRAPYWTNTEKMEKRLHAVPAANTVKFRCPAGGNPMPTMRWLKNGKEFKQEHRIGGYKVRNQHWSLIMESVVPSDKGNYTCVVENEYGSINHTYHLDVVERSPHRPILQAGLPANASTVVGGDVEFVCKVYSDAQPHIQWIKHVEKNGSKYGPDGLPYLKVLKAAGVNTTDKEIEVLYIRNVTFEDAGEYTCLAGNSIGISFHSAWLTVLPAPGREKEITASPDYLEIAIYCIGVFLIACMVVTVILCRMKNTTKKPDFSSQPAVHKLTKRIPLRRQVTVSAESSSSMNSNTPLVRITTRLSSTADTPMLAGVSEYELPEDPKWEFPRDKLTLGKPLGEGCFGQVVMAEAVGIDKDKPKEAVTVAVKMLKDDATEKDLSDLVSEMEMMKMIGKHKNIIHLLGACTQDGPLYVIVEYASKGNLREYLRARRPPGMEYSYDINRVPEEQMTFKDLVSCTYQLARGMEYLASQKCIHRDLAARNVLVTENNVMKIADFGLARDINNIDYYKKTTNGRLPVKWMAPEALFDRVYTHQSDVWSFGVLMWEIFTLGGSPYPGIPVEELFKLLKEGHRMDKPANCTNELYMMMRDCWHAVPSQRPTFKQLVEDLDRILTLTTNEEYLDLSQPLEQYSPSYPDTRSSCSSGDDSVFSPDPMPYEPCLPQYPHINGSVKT
Sequence of FGFR2(h) (P21802 22-821): as the sequence (P21802 22-821 N549H) above, with H528N counted along it
Sequence of CYP450 2C9 (P11712 whole entry): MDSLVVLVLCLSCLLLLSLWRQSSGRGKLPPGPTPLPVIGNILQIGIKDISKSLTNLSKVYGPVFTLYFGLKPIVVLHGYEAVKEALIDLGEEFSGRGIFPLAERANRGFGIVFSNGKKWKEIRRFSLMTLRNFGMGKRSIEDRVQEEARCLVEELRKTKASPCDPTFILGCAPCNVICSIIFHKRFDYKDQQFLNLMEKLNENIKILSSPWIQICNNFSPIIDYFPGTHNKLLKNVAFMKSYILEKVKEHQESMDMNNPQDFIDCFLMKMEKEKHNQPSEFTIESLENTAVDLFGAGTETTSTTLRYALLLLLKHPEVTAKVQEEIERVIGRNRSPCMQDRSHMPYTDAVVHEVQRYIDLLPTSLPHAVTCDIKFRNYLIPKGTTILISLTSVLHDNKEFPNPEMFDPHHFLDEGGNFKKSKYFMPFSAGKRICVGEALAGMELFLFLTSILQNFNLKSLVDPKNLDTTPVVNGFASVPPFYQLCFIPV
T1 sequence (P22607 23-806, species assumed): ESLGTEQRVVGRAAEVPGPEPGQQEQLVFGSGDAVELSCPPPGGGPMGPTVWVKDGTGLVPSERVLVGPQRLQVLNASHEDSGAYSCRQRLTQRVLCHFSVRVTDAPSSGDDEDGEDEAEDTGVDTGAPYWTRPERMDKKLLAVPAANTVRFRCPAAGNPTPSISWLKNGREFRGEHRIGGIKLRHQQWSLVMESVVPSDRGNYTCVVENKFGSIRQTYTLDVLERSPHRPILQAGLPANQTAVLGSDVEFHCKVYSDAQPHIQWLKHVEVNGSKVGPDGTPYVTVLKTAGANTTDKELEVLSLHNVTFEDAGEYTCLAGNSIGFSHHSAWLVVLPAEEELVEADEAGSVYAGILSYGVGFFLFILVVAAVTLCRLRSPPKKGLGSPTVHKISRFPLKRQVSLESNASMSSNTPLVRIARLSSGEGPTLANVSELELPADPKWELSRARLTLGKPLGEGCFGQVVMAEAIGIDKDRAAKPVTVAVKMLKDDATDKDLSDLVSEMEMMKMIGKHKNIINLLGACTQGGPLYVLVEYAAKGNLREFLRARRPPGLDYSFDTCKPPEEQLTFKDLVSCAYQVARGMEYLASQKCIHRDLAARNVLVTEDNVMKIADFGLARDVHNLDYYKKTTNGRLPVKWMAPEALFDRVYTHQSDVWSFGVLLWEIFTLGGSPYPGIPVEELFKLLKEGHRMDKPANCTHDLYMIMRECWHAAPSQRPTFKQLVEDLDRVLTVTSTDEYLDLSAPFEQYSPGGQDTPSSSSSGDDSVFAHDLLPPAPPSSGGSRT
Sequence of Tie2(h) (Q02763 23-1124): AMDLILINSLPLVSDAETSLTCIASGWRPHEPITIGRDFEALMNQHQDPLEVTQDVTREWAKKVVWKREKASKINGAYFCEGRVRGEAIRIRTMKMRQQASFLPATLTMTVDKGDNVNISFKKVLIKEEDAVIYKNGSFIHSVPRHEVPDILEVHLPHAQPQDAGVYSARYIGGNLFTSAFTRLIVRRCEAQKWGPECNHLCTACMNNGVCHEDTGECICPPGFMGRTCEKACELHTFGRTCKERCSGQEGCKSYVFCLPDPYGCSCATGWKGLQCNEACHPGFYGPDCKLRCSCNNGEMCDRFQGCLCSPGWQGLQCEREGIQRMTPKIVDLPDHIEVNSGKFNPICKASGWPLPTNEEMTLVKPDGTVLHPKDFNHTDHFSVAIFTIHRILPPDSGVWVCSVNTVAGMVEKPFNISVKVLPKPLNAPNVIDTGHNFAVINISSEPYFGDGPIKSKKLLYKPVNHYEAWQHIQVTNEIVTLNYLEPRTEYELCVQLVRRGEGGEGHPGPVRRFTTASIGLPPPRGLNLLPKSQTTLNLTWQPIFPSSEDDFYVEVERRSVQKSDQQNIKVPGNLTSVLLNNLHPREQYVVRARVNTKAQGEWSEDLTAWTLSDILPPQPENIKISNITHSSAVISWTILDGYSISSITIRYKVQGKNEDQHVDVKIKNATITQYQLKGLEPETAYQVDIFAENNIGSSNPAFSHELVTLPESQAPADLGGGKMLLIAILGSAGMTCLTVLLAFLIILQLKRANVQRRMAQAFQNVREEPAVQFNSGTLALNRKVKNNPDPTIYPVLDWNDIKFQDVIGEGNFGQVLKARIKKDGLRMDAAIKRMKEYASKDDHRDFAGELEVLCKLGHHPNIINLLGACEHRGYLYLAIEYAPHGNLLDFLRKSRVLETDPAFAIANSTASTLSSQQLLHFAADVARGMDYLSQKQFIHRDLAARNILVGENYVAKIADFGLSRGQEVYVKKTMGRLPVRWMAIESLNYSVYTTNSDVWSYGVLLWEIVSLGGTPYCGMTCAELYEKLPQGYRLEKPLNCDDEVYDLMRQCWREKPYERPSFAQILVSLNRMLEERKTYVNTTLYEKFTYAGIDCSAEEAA
Sequence of CYP450 2D6 (P10635 whole entry): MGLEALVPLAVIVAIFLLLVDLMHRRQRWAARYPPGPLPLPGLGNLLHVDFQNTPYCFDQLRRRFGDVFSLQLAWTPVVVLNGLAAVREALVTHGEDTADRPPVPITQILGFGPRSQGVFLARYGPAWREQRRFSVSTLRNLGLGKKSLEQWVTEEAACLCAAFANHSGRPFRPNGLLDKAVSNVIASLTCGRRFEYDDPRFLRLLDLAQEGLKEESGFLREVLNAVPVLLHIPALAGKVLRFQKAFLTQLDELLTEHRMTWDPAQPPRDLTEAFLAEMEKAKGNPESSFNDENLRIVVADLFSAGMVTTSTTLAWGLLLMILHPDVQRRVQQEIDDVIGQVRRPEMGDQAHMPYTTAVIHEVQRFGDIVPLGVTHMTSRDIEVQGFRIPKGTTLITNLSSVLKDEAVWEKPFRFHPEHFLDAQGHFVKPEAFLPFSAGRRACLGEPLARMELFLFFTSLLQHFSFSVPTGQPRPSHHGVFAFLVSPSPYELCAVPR
Sequence of Aurora-A (h) (O14965 whole entry): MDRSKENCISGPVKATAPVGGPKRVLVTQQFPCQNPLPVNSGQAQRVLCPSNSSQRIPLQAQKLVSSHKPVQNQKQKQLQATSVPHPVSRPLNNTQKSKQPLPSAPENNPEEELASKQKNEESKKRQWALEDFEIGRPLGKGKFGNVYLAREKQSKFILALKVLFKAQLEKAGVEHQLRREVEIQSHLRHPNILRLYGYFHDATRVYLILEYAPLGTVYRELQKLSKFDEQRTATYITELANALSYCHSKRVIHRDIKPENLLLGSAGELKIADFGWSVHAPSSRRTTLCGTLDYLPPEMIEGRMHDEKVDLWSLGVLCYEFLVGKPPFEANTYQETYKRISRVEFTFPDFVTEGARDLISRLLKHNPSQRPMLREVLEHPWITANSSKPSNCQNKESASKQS

In the case of `Cc1cc2c(F)c(Oc3ncnc(Nc4ccc(N5C[C@@H](C)N[C@@H](C)C5)cc4)c3C#N)cc(F)c2[nH]1` [Compound 19], the IC50 (CYP450 2D6) is reported as > 100000 nM, the IC50 (FGFR3) is reported as 32.6 nM and the “BWC (%)” value (TG1a Human AML Xenograft; 5 mg/kg, Qdx10, IP) is reported as −4.1%. The “T/C (%) (day14)” value (TG1a Human AML Xenograft; 5 mg/kg, Qdx10, IP) was −69.7%, the “BWC (%)” value (TG1a Human AML Xenograft; 10 mg/kg, Qdx10, IP) was −6.3% and the “T/C (%) (day14)” value (TG1a Human AML Xenograft; 10 mg/kg, Qdx10, IP) was −83.7%. For the same compound, the “BWC (%) (d7)” value (TG1a Human AML Xenograft; 20 mg/kg, Qdx10, IP, d7) was −26.2%, the “T/C (%) (day7)” value (TG1a Human AML Xenograft; 20 mg/kg, Qdx10, IP, day7) was −68.7% and the “Weight loss in dose-response study (FIGS. 4 and 5)” value (TG1a Human AML Xenograft; highest dose, 20 mg/kg) was “significant weight loss”. For the same compound, the CC50 [1] was 1900 nM, the half-life [2] was > 1 h and the IC50 (Ret(h)) was > 1000 nM. For the same compound, the “Antitumor activity (tumor cells expansion), FIG. 2” value (nude mouse model of AML; both dosages tested) was “near complete suppression of the tumor cells expansion”, the “Animal weight as surrogate marker for toxicity, FIG. 3” value (nude mouse model of AML; vs control) was “no difference between the control and compound 19 treated animals” and the IC50 (Tie2(h)) was > 1000 nM. For the same compound, the GI50 (Kato III) was 79 nM, the IC50 (Flt3(h)) was > 1000 nM and the IC50 (CYP450 2C8) was 10600 nM. The IC50 (Aurora-A (h)) was > 1000 nM, the IC50 (cSRC(h)) was > 1000 nM and the IC50 (CYP450 2C9) was 32900 nM. For the same compound, the IC50 (CYP450 1A2) was 72000 nM, the MTD [3] was 100 mg/kg and the IC50 (Met(h)) was > 1000 nM. For the same compound, the IC50 (FGFR2(N549H)(h)) was 7 nM, the half-life [4] was > 1 h and the IC50 (FGFR2(h)) was 11 nM. For the same compound, the IC50 (hERG) was > 30000 nM, the IC50 (FGFR4) was 92.1 nM and the IC50 (FGFR1(V561M)(h)) was 134 nM. The IC50 (Axl(h)) was > 1000 nM.
